# Measurements: ChEMBL document CHEMBL5380777, “Efficacy, Mechanism, and Structure-Activity Relationship of 6-Methoxy Benzofuran Derivatives as a Useful Tool for Senile Osteoporosis” (J Med Chem, 2023)
# Active and inactive are the calls of the source. The rule behind the calls is not given here.
# Tests used:
# [1] = Toxicity in 2.5 months old SAMP-6 rapid aging mouse model assessed as change in body weight administered at 30 mg/kg/day, IG continuously for 3 months; format: organism-based; conditions: in vivo, po, 2190 h
# [2] = system: Osteoblast; assay: Regulation of osteogenesis in 16 months old C57 mouse osteoblast endoplasmic reticulum assessed as increase in Atf4 gene by scRNA-seq analysis; format: functional, cell-based
# [3] = system: Osteoblast; assay: Regulation of osteogenesis in 16 months old C57 mouse osteoblast endoplasmic reticulum assessed as increase in Hspa1b gene by scRNA-seq analysis; format: functional, cell-based
# [4] = Toxicity in 2.5 months old SAMP-6 rapid aging mouse model assessed as change in triglyceride level administered at 30 mg/kg/day, IG continuously for 3 months; format: organism-based; conditions: in vivo, po, 2190 h
# [5] = Toxicity in 2.5 months old SAMP-6 rapid aging mouse model assessed as change in ALP level administered at 30 mg/kg/day, IG continuously for 3 months; format: organism-based; conditions: in vivo, po, 2190 h
# [6] = system: Mus musculus; assay: Anti osteoporosis in 16 months old C57 mouse assessed as T cell level in femur administered at 30 mg/kg/day, IG continuously for 4 months by scRNA-seq analysis (reference value: 10.54%); format: functional; conditions: 2920 h
# [7] = system: Mus musculus; assay: Anti osteoporosis in 16 months old C57 mouse assessed as increase in bone mass administered at 30 mg/kg/day, IG continuously for 4 months by micro CT analysis relative to young control group; format: functional, organism-based
# [8] = system: Osteoblast; assay: Regulation of osteogenesis in 16 months old C57 mouse osteoblast endoplasmic reticulum assessed as increase in CRYAB gene by scRNA-seq analysis; format: functional, cell-based
# [9] = system: Osteoblast; assay: Upregulation of transcription factor TAX1BP1 expression in 16 months old C57 mouse osteoblast by scRNA-seq analysis; format: functional, cell-based
# [10] = system: Mus musculus; assay: Anti osteoporosis in 16 months old C57 mouse assessed as fold increase in osteoclast level in femur administered at 30 mg/kg/day, IG continuously for 4 months by scRNA-seq analysis relative to control; format: functional; conditions: 2920 h
# [11] = system: Mus musculus; assay: Anti osteoporosis in 16 months old C57 mouse assessed as B cell level in femur administered at 30 mg/kg/day, IG continuously for 4 months by scRNA-seq analysis (reference value: 5.19%); format: functional; conditions: 2920 h
# [12] = Toxicity in 2.5 months old SAMP-6 rapid aging mouse model assessed as change in ALP level administered at 30 mg/kg/day, IG continuously for 3 months in presence of ALN; format: organism-based; conditions: in vivo, po, 2190 h
# [13] = system: Mus musculus; assay: Anti osteoporosis in 16 months old C57 mouse assessed as proliferating granulocyte level in femur administered at 30 mg/kg/day, IG continuously for 4 months by scRNA-seq analysis (reference value: 6.29%); format: functional; conditions: 2920 h
# [14] = system: Osteoblast; assay: Regulation of osteogenesis in 16 months old C57 mouse osteoblast endoplasmic reticulum assessed as increase in Hsp90aa1 gene by scRNA-seq analysis; format: functional, cell-based
# [15] = system: Mus musculus; assay: Anti osteoporosis in 2.5 months old SAMP-6 rapid aging mouse model assessed as upregulation of serum BMP2 administered at 30 mg/kg/day, IG in presence of ALN continuously for 3 months […]; format: functional, organism-based
# [16] = system: Osteoblast; assay: Upregulation of transcription factor JUND expression in 16 months old C57 mouse osteoblast by scRNA-seq analysis; format: functional, cell-based
# [17] = system: Mus musculus; assay: Anti osteoporosis in 16 months old C57 mouse assessed as endothelial cell level in femur administered at 30 mg/kg/day, IG continuously for 4 months by scRNA-seq analysis (reference value: 2.34%); format: functional; conditions: 2920 h
# [18] = system: Mus musculus; assay: Anti osteoporosis in 16 months old C57 mouse assessed as monocyte level in femur administered at 30 mg/kg/day, IG continuously for 4 months by scRNA-seq analysis (reference value: 12.2%); format: functional; conditions: 2920 h
# [19] = Toxicity in 16 months old C57 mouse assessed as change in body weight administered at 30 mg/kg/day, IG continuously for 4 months relative to aged control group; format: organism-based; conditions: in vivo, po, 2920 h
# [20] = system: Mus musculus; assay: Anti osteoporosis in 2.5 months old SAMP-6 rapid aging mouse model assessed as increase in bone mass administered at 30 mg/kg/day, IG continuously for 3 months in presence of ALN by micro CT analysis; format: functional, organism-based
# [21] = system: Osteoblast; assay: Regulation of osteogenesis in 16 months old C57 mouse osteoblast endoplasmic reticulum assessed as increase in Dnaja1 gene by scRNA-seq analysis; format: functional, cell-based
# [22] = Toxicity in 2.5 months old SAMP-6 rapid aging mouse model assessed as change in body weight administered at 30 mg/kg/day, IG in presence of ALN continuously for 3 months; format: organism-based; conditions: in vivo, po, 2190 h
# [23] = system: Mus musculus; assay: Anti osteoporosis in 16 months old C57 mouse assessed as reconstruction of bone microstructure administered at 30 mg/kg/day, IG continuously for 4 months by micro CT analysis relative to aged control group; format: functional, organism-based
# [24] = system: Mus musculus; assay: Anti osteoporosis in 16 months old C57 mouse assessed as granulocyte level in femur administered at 30 mg/kg/day, IG continuously for 4 months by scRNA-seq analysis (reference value: 28.33%); format: functional; conditions: 2920 h
# [25] = system: Osteoblast; assay: Upregulation of transcription factor PSMD12 expression in 16 months old C57 mouse osteoblast by scRNA-seq analysis; format: functional, cell-based
# [26] = system: Mus musculus; assay: Anti osteoporosis in 16 months old C57 mouse assessed as erythroblast level in femur administered at 30 mg/kg/day, IG continuously for 4 months by scRNA-seq analysis (reference value: 1.91%); format: functional; conditions: 2920 h
# [27] = Toxicity in 16 months old C57 mouse assessed as change in serum AST level administered at 30 mg/kg/day, IG continuously for 4 months; format: organism-based; conditions: in vivo, po, 2920 h
# [28] = Toxicity in 16 months old C57 mouse assessed as change in cholesterol level administered at 30 mg/kg/day, IG for 4 months for every 6 days; format: organism-based; conditions: in vivo, po, 2920 h
# [29] = species: Danio rerio; assay: Anti osteoporosis activity in prednisone induced wildtype 3 days post-fertilization AB zebrafish osteoporosis model assessed as increase in bone fluorescence intensity (RVB = 13620 +/- 1692); format: functional
# [30] = Toxicity in 16 months old C57 mouse assessed as change in albumin level administered at 30 mg/kg/day, IG continuously for 4 months; format: organism-based; conditions: in vivo, po, 2920 h
# [31] = system: Mus musculus; assay: Anti osteoporosis in 16 months old C57 mouse assessed as GrP level in femur administered at 30 mg/kg/day, IG continuously for 4 months by scRNA-seq analysis (reference value: 12.75%); format: functional; conditions: 2920 h
# [32] = system: Osteoblast; assay: Regulation of osteogenesis in 16 months old C57 mouse osteoblast endoplasmic reticulum assessed as increase in Hspa8 gene by scRNA-seq analysis; format: functional, cell-based
# [33] = system: Mus musculus; assay: Anti osteoporosis in 2.5 months old SAMP-6 rapid aging mouse model assessed as increase in osteoblast formation administered at 30 mg/kg/day, IG continuously for 3 months; format: functional, organism-based
# [34] = system: Osteoblast; assay: Upregulation of transcription factor H1F0 expression in 16 months old C57 mouse osteoblast by scRNA-seq analysis; format: functional, cell-based
# [35] = system: Osteoblast; assay: Upregulation of transcription factor CSDE1 expression in 16 months old C57 mouse osteoblast by scRNA-seq analysis; format: functional, cell-based
# [36] = system: Mus musculus; assay: Anti osteoporosis in 16 months old C57 mouse assessed as osteoclast level in femur administered at 30 mg/kg/day, IG continuously for 4 months by scRNA-seq analysis (reference value: 6.52%); format: functional; conditions: 2920 h
# [37] = system: Mus musculus; assay: Anti osteoporosis in 2.5 months old SAMP-6 rapid aging mouse model assessed as increase in bone mass administered at 30 mg/kg/day, IG continuously for 3 months by micro CT analysis; format: functional, organism-based
smiles,measurement,setting,value
COc1ccc2cc(C(=O)NCCN(C)C)oc2c1.CS(=O)(=O)O,Activity,[1],Non-Toxic
same,Activity,[2],Active
same,Activity,[3],Active
same,Activity,[4],Non-Toxic
same,Activity,[5],Non-Toxic
same,Activity,[6],8.96%
same,Activity,[7],Active
same,Activity,[8],Active
same,Activity,[9],Active
same,fold change (FC),[10],3
same,Activity,[11],3.05%
same,Activity,[12],Non-Toxic
same,Activity,[13],4.71%
same,Activity,[14],Active
same,Activity,[15],Active
same,Activity,[16],Active
same,Activity,[17],2.38%
same,Activity,[18],4.94%
same,Activity,[19],Non-Toxic
same,Activity,[20],Active
same,Activity,[21],Active
same,Activity,[22],Non-Toxic
same,Activity,[23],Active
same,Activity,[24],34.01%
same,Activity,[25],Active
same,Activity,[26],1.42%
same,Activity,[27],Non-Toxic
same,Activity,[28],Non-Toxic
same,Flu intensity,[29],19181
same,Activity,[30],Non-Toxic
same,Activity,[31],6.51%
same,Activity,[32],Active
same,Activity,[33],Active
same,Activity,[34],Active
same,Activity,[35],Active
same,Activity,[36],12.12%
same,Activity,[37],Active
